ΔTm data for 46 compounds are collected here from ChEMBL document CHEMBL5724796, “Tm Shift (DSF) assay results for EUbOPEN Chemogenomics Library” (2024).

The structures appear in SMILES notation. Residues, ends and D or L forms follow the SMILES beside them. *: point of attachment. Cbz = O=C(OCc1ccccc1)*

For one test, the target named is T1, Peregrin (Homo sapiens) (UniProt P55201).
T1 sequence (whole entry): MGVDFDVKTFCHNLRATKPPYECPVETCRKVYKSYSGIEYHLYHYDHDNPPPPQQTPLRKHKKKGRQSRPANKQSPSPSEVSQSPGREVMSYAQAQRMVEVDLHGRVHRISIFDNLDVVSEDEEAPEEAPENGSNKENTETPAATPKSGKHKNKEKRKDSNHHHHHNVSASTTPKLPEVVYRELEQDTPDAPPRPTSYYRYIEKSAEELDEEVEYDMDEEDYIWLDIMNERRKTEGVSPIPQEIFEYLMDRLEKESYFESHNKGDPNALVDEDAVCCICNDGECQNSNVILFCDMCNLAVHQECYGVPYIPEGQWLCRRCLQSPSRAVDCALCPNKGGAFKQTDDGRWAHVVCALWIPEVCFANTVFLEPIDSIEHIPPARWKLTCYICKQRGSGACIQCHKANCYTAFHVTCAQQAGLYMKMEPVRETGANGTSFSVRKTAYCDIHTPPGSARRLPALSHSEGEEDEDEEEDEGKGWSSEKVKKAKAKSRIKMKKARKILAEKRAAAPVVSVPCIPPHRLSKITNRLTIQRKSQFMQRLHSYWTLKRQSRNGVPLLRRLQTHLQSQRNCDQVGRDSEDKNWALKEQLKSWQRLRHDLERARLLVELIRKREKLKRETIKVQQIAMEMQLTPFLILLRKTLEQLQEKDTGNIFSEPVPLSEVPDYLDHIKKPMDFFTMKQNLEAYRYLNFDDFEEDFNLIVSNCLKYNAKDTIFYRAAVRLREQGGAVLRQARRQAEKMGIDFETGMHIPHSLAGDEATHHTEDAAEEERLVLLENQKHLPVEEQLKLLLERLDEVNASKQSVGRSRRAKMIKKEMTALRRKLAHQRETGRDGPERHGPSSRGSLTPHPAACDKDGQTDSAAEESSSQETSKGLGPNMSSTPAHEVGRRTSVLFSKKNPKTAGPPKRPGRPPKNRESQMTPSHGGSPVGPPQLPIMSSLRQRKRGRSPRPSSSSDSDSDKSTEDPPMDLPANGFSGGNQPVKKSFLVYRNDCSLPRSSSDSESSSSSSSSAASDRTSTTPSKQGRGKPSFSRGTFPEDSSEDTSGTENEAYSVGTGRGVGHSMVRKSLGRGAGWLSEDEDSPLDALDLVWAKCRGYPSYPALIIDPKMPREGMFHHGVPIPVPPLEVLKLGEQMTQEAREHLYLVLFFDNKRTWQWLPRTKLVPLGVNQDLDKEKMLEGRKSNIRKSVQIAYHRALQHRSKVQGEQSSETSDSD
The settings on record: Compound concentration 20.0 uM.

In test [1] the target is Fibroblast growth factor receptor 2 (Homo sapiens) (UniProt P21802). The settings on record: Compound concentration 20.0 uM.
Fibroblast growth factor receptor 2 (Homo sapiens), sequence (P21802 22-821 limits assumed): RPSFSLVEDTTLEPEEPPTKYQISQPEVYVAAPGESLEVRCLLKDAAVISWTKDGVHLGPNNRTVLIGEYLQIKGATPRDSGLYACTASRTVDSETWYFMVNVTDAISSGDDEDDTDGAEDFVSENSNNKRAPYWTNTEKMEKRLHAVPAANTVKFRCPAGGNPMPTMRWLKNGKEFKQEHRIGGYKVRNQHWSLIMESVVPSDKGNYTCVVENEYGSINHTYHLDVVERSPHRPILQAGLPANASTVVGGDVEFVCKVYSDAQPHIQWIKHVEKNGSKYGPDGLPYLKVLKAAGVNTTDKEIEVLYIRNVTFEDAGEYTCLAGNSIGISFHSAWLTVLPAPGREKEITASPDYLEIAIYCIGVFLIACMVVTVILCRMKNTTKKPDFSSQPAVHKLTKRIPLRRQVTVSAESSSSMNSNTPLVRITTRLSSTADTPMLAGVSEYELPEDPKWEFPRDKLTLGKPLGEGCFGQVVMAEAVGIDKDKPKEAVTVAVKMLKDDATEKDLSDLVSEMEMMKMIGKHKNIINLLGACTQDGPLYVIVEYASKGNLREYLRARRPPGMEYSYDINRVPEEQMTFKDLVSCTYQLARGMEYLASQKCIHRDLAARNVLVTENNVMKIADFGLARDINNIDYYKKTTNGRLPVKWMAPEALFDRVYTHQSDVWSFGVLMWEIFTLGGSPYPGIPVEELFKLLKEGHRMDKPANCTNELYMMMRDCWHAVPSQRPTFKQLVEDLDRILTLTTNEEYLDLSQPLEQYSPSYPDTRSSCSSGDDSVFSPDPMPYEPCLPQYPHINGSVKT
Description: Thermal Shift Assay. Domain: start/stop: T457-E768

As a reminder, the ΔTm is the shift of the melting midpoint relative to a reference. Consider `CC(=O)Nc1ccc(-c2cc(-c3ccccc3)nc3cc(C(=O)NCCCn4ccnc4)nn23)cc1`, for which the ΔTm on Peregrin (Homo sapiens) was -0.4 °C; in test [1] it was 0.21 °C.

For the compound `Cc1nc(-c2cnc(NC(C)C)n(C)c2=O)ccc1Oc1ccnc(-c2cnn(C)c2)c1`, the ΔTm on Peregrin (Homo sapiens) was -1.33 °C; in test [1] it was 0.6 °C.

As to `CC(=O)N[C@@H](CC(C)C)C(=O)N[C@@H](CCC(=O)O)C(=O)N[C@H](C(=O)N[C@H](C=O)CC(=O)O)C(C)C` (Ac-LEVD-aldehyde), the shift in melting temperature (ΔTm) at Peregrin (Homo sapiens) is -1.25 °C; in test [1], 0.88 °C.

On to `O=C(NC1CCC1)c1ccc2nc(-c3cccc(NS(=O)(=O)NCCN4CCCCC4)c3)cn2c1`, for which the ΔTm was 1.25 °C at Peregrin (Homo sapiens) and -0.11 °C in test [1].

As to `NC(=O)C1CCCc2c1[nH]c1ccc(Cl)cc21` (configuration not stated), the ΔTm at Peregrin (Homo sapiens) turned out to be 2.61 °C; in test [1], 0.23 °C.

For `Cc1cc(C)c(-c2[nH]nc(C)c2C)cc1C(=O)N1CC(c2ccc(C#N)cc2)C1`, the values for the ΔTm (on Peregrin (Homo sapiens); in test [1]) were -1.03 °C and -0.22 °C, respectively.

For the compound `COc1ccc(N(C(=O)Oc2c(C)cccc2C)c2ccnc(Nc3ccc(N4CCN(C)CC4)cc3)n2)c(OC)c1`, the figures for the ΔTm (at Peregrin (Homo sapiens); in test [1]) were -1.1 °C and 4.44 °C, respectively.

With `O=CC1CCCN1C(=O)C1CCCN1C(=O)OCc1ccccc1` (stereo not drawn) (Cbz-Pro-Pro-aldehyde; configuration not given here), the ΔTm is -0.94 °C on Peregrin (Homo sapiens) and 0.49 °C in test [1].

In the case of `CC(C)(C)C1CCN(C(=O)n2ncc(C(O)(c3ccccc3)c3ccccc3)n2)CC1`, the ΔTm was -4.31 °C on Peregrin (Homo sapiens) and -3.22 °C in test [1].

`O=c1[nH][nH]c(=O)c2cc(OCC3CCCCC3)ccc12`: the ΔTm was 2.63 °C at Peregrin (Homo sapiens) and 1.11 °C in test [1].

Regarding `O=C(CN1CCN(c2ccc(F)cn2)CC1)Nc1nc2c(s1)CCCC2`, the values for the ΔTm (on Peregrin (Homo sapiens); in test [1]) were 2.63 °C and -0.21 °C, respectively.

Take `CCCC(NC(=O)C(CC(C)C)NC(=O)OCc1ccccc1)C(=O)C(=O)NCc1ccccn1` (racemic): the values for the ΔTm (on Peregrin (Homo sapiens); in test [1]) were -1.7 °C and 0.15 °C, respectively.

With `CCCCCn1c(C)c(C(=O)c2cccc3ccccc23)c2ccccc21`, the ΔTm was determined as 2.08 °C at Peregrin (Homo sapiens) and 0.39 °C in test [1].

For the compound `Cn1c(NCCN(CCO)CCCc2ccc([N+](=O)[O-])cc2)cc(=O)n(C)c1=O`, the results for the ΔTm (at Peregrin (Homo sapiens); in test [1]) were 1.28 °C and 0.47 °C, respectively.

In the case of `CC(C)(C)c1ccc(S(=O)(=O)NCc2ccc(C(=O)Nc3cccnc3)cc2)cc1`, the ΔTm was -0.61 °C on Peregrin (Homo sapiens) and -0.54 °C in test [1].

On to `CC(C)(Sc1ccncc1-c1ccc(C#N)c2ccccc12)C(=O)O`, for which the ΔTm at Peregrin (Homo sapiens) was 0.05 °C; in test [1], 0.42 °C.

Consider `COc1ccc(/C=C/C(=O)NO)c(-c2ccc(-c3ccccc3)cc2)c1`, for which the ΔTm at Peregrin (Homo sapiens) is -5.43 °C; in test [1], -5.03 °C.

As for `COc1cc2/c(=N/c3ccc(Br)cc3F)nc[nH]c2cc1OCC1CCN(C)CC1`, the ΔTm was -0.84 °C on Peregrin (Homo sapiens) and 5.47 °C in test [1].

With `NC(=O)c1ccc(Oc2ccc(C(N)=O)cc2)cc1`, the thermal shift (ΔTm) at Peregrin (Homo sapiens) was -2.11 °C; in test [1], 0.24 °C.

Take `CN(Cc1ccccc1)c1ccc2cc(C(=O)O)c(=O)oc2c1`: the ΔTm is 0.71 °C at Peregrin (Homo sapiens) and 0.34 °C in test [1].

`CCS(=O)(=O)N1CCC([C@@H](C)n2c(C)c(C(=O)NCc3c(OC)cc(C)[nH]c3=O)c3ccccc32)CC1`: the ΔTm on Peregrin (Homo sapiens) is -1.1 °C; in test [1] it was 0.02 °C.

Consider `CS(=O)(=O)Nc1ccc2oc3c(OC(F)F)ccc(C(=O)Nc4c(Cl)cncc4Cl)c3c2c1`, for which the ΔTm at Peregrin (Homo sapiens) is 0.46 °C; in test [1] it was -0.38 °C.

As for `COc1cc2c(cc1OC)[C@H]1C[C@@H](O)[C@H](CC(C)C)CN1CC2`, the ΔTm at Peregrin (Homo sapiens) was found to be 0.34 °C; in test [1], 0.33 °C.

For the compound `CCOC(=O)NCCCC(=O)NCCc1ccccc1`, the values for the ΔTm (at Peregrin (Homo sapiens); in test [1]) were -0.92 °C and 0.51 °C, respectively.

As to `O=C(O)/C(S)=C/c1ccc(I)cc1`, the ΔTm on Peregrin (Homo sapiens) was -1.4 °C; in test [1], -1 °C.

Take `C[C@]12CCCN1CC1=NNC(=O)c3cc(F)cc4[nH]c2c1c34`: the figures for the ΔTm (on Peregrin (Homo sapiens); in test [1]) were -1.02 °C and 0.9 °C, respectively.

Turning to `NC(=S)c1cccc(-c2cn(C3CCN(S(=O)(=O)C(F)(F)F)CC3)c3cc(CNC(=O)C4CNC4)ccc23)c1`, the ΔTm is 5.2 °C at Peregrin (Homo sapiens) and 0.25 °C in test [1].

Consider `CC1(C)Cn2nc(-c3ccc(F)cn3)c(-c3ccnc4[nH]ncc34)c2CO1`, for which the ΔTm on Peregrin (Homo sapiens) (tested as the 2H-labelled form) is -1.29 °C; in test [1] (tested as the 2H-labelled form) it was 0.38 °C.

For the compound `O=S(=O)(O)c1ccc2cc(/N=N/c3cc(S(=O)(=O)O)c4cccnc4c3O)ccc2c1`, the ΔTm at Peregrin (Homo sapiens) is -0.89 °C; in test [1], -0.08 °C.

Regarding `O=C(CNC(=O)[C@H](COP(=O)(O)O)NC(=O)CCc1c[nH]c2ccccc12)NCCCCc1ccccc1`, the ΔTm was found to be 2.14 °C at Peregrin (Homo sapiens) and 0.74 °C in test [1].

Take `C=C(C)[C@@H](CC=C(C)C)C[C@@]12C[C@@H](CC=C(C)C)C(C)(C)[C@@](CC=C(C)C)(C(=O)C(C(=O)c3ccc(O)c(O)c3)=C1O)C2=O`: the thermal shift (ΔTm) at Peregrin (Homo sapiens) was -4.72 °C; in test [1], -5.95 °C.

As to `COc1cn(-c2ccc(-n3cccn3)cc2F)nc(-c2ccnn2-c2ccccc2)c1=O`, the ΔTm was determined as 1.13 °C at Peregrin (Homo sapiens) and 0.54 °C in test [1].

For the compound `CCCNC(=O)[C@H]1O[C@@H]1C(=O)N[C@H](C(=O)N1CCC[C@H]1C(=O)O)[C@@H](C)CC`, the ΔTm was -2.2 °C at Peregrin (Homo sapiens) and 0.07 °C in test [1].

Take `COC(=O)C1=C(C(=O)OC)[C@@]2([C@@H](Cc3ccc(C)cc3)Nc3ccccc3)C=C[C@@H]1O2`: the ΔTm is -3.55 °C at Peregrin (Homo sapiens) and 0.51 °C in test [1].

Take `O=C(CCCCCCNC(=O)c1cnc(N(c2ccccc2)c2ccccc2Cl)nc1)NO`: the ΔTm was -1.49 °C on Peregrin (Homo sapiens) and 0.65 °C in test [1].

Take `CN(C)NC(=O)CCC(=O)O`: the ΔTm at Peregrin (Homo sapiens) was 0.25 °C; in test [1] it was 0.18 °C.

In the case of `CNC(=O)Cn1cc(-c2ccc3c(c2)[C@H](F)C[C@]32NC(=O)N(CC(=O)N(Cc3ccc(F)cc3)[C@@H](C)C(F)(F)F)C2=O)cn1`, the ΔTm at Peregrin (Homo sapiens) is -0.07 °C; in test [1], -0.18 °C.

As for `CN(CCCN1c2ccccc2CCc2ccccc21)CC(=O)c1ccc(Cl)cc1`, the ΔTm at Peregrin (Homo sapiens) was -0.12 °C; in test [1] it was 0.53 °C.

On to `O=C1CCc2cc(OCCCCc3nnnn3C3CCCCC3)ccc2N1`, for which the ΔTm is -1.16 °C on Peregrin (Homo sapiens) and -0.38 °C in test [1].

For the compound `O=c1[nH]ccc2cc(F)c(NS(=O)(=O)c3ccc(N4CC[C@@H](O)C4)s3)cc12`, the values for the ΔTm (on Peregrin (Homo sapiens); in test [1]) were -1.14 °C and 0.54 °C, respectively.

`Nc1ncnc2c1ncn2[C@@H]1O[C@H](C(=O)N2CCN(CC(=O)Nc3cccc4c3CNC4=O)CC2)[C@@H](O)[C@H]1O`: the ΔTm was -1.21 °C at Peregrin (Homo sapiens) and 0.74 °C in test [1].

Take `COc1cc(C)[nH]c(=O)c1CNC(=O)c1c(C)n([C@H](C)C2CCN(CC(F)(F)F)CC2)c2ccccc12`: the ΔTm is -1.59 °C on Peregrin (Homo sapiens) and 0.91 °C in test [1].

As to `Nc1ncnc2c1nc(NCc1ccc(-c3ccccc3)cc1)n2[C@@H]1O[C@H](CO)[C@@H](O)[C@H]1O`, the ΔTm was 0.29 °C on Peregrin (Homo sapiens) and 0.12 °C in test [1].

As to `CN(CCOc1ccc(-c2ccc3c(c2)OCO3)cc1C(C)(C)C)CC(=O)O`, the ΔTm at Peregrin (Homo sapiens) is 2.31 °C; in test [1] it was -0.25 °C.

On to `Cc1cc(C)cc(Oc2ccc(CNC(=O)[C@H](C)N)cc2C)c1`, for which the ΔTm on Peregrin (Homo sapiens) was -1.68 °C; in test [1], 0.01 °C.

For `CCC(NC(=O)C(CC(C)C)NC(=O)OCc1ccccc1)C(=O)C(=O)NCCCN1CCOCC1` (configuration not stated), the ΔTm was -1.22 °C on Peregrin (Homo sapiens) and 1.24 °C in test [1].
